Assay: Water solubility of DTEA HCl (pure and crude) at different temperatures
Format: physicochemical
Details: FIG. 2
Excerpt: FIG. 2 graphically represents the water solubility of pure DTEA HCl.

CCCCCCCCCCSCCN.Cl [DTEA HCl, n-decylthioethylamine HCl]
solids formation (15 wt % solution in water): forms solids well above RT
solubility in water (at 32° F.): essentially insoluble
solubility in water (at 56° F., no LTS): less than 1 wt %
solubility in water (at 67° F., no LTS): 11 wt %
